According to US7160874B2, “Phenylalanine derivatives” (Ajinomoto Co., Inc., priority 1999, dated 2007):
Read-outs that look alike come from different tables or passages of the source.

Tests used:
integrin α4β1 = biological target: T1, integrin α4β1 (Homo sapiens, UniProt P05556+P13612); experiment: VCAM antagonist activity (VCAM-1/α4β1 binding assay); type: cell-based
T1 construct: cell strain Jurkat (ATCC TIB-152) of human T cells, known to express integrin α4β1; host or cells: Jurkat (human T cell line)
T1 sequence (P05556 21-798, one chain of several): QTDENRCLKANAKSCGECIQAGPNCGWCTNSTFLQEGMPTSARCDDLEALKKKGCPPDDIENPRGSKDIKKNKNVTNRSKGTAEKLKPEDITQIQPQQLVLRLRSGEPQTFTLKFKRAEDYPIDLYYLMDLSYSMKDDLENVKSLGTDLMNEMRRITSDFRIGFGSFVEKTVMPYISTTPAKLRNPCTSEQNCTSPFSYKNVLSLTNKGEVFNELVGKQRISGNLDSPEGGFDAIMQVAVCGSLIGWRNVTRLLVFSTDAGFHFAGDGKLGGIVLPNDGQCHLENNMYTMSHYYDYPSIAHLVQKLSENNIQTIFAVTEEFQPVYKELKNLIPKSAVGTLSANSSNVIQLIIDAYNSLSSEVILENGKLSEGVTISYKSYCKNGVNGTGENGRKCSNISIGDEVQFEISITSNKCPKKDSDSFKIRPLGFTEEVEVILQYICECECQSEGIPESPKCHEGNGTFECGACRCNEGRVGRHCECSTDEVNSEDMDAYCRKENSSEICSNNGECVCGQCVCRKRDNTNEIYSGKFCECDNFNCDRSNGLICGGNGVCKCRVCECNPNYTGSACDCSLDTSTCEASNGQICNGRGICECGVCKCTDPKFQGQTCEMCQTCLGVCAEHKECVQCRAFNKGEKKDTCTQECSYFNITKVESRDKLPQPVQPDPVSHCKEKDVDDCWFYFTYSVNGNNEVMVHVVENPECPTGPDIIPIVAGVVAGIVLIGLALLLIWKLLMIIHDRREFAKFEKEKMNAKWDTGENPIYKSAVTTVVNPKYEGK
Procedure: (Test Example) VCAM Antagonist Activity (VCAM-1/α4β1 Binding Assay):
The capacity of a test substance antagonistic to the binding of cell strain Jurkat (ATCC TIB-152) of human T cells, known to express integrin α4β1, to VCAM-1 was determined.
(§1) 100 μl/well of a solution (500 ng/ml) of recombinant human VCAM-1 (R & D systems) solution diluted with buffer A (0.1 M NaHCO3, pH 9.6) was added to a micro titer plate having 96 wells (Nunc Maxisorp). After the incubation at 4° C. overnight, unbound VCAM-1 was removed by washing once with PBS. After completion of the washing, a buffer (buffer B) obtained by diluting Block Ace® (Dainippon Pharmaceutical Co., Ltd.) with PBS to 1/4 concentration was added in an amount of 150 μl/well. After the incubation at room temperature for 1 hour, buffer B was removed and the plate was washed with PBS once.
Jurkat cells were washed with Dulbecco modified Eagle medium (SIGMA, hereinafter referred to as “DMEM”) twice and then incubated in DMEM containing 10 μg/ml of Calcein-AM (Wako Pure Chemical Industries, Ltd.) at 37° C. in dark place for 30 minutes to label with fluorescence. The cells were again suspended in a binding buffer (20 mM HEPES, DMEM containing 0.1% BSA).
(§2) 50 μl of a test substance of various concentrations obtained by the dilution with the binding buffer was added to the plate. Immediately thereafter, 50 μl (final volume: 100 μl/well) of the fluorescent Jurkat cells (4×10^6 cells/ml) were added thereto, and they were incubated at room temperature for 30 minutes. After the shaking on a plate shaker (IKA MTS-4) at 800 rpm for 30 seconds, the solution was immediately removed to remove the unbound cells. The fluorescence quantity of the bound cells remaining in the wells was determined with a fluorescent plate reader (Wallac 1420 ARVO multi-label counter) (filter excitation wave length: 485 nm, emission wave length: 535 nm). The fluorescent strength thus obtained is proportional to the number of Jurkat cells bound to VCAM-1 and remaining on the plate. The binding rate of each test material in various concentrations was determined while the fluorescent strength of the test material-free well was determined to be 100%. The concentration IC50 for the 50% binding inhibition was calculated.
(§3) The activities were classified into group A wherein IC50 was 0.02 μmol/l or below, group B wherein IC50 was higher than 0.02 μmol/l and not above 0.1 μmol/l, group C wherein IC50 was higher than 0.1 μmol/l and not above 2 μmol/l, and group D wherein IC50 was higher than 2 μmol/l and not above 10 μmol/l.

integrin α4β7 = biological target: T2, integrin α4β7 (Homo sapiens, UniProt P13612+P26010); experiment: VCAM antagonistic activity (VCAM-1/α4β7 binding assay); type: cell-based
T2 construct: lymphoma cell strain RPMI-8866 of human B cells, known to express integrin α4β7; endogenous in cells; host or cells: RPMI-8866 (human B lymphoma cell line)
T2 sequence (P13612 34-1032): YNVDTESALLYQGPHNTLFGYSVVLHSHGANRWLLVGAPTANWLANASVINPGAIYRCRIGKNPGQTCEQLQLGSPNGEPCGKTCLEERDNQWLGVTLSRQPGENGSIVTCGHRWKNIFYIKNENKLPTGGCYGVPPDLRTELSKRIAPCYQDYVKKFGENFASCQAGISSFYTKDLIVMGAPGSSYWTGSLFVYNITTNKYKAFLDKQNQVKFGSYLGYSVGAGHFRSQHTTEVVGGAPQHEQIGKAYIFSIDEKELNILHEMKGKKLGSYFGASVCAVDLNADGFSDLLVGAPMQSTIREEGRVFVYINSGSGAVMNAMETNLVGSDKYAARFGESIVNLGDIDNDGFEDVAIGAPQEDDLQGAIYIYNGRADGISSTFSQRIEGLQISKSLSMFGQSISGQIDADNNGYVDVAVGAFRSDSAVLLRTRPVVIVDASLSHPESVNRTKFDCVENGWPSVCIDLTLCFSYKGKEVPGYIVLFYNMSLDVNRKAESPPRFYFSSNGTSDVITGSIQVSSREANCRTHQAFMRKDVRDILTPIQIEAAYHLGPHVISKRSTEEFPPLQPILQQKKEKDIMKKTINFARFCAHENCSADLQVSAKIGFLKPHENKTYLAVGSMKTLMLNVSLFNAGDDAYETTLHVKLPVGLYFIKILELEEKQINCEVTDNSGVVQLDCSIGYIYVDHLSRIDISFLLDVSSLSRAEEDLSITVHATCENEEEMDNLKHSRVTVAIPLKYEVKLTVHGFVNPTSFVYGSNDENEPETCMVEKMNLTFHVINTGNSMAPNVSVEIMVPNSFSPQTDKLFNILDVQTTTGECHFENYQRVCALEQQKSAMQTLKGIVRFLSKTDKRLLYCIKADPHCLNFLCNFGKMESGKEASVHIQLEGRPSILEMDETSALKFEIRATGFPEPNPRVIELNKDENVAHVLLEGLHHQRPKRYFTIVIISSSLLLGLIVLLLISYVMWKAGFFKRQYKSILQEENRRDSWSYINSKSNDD
T2 sequence (P26010 20-798): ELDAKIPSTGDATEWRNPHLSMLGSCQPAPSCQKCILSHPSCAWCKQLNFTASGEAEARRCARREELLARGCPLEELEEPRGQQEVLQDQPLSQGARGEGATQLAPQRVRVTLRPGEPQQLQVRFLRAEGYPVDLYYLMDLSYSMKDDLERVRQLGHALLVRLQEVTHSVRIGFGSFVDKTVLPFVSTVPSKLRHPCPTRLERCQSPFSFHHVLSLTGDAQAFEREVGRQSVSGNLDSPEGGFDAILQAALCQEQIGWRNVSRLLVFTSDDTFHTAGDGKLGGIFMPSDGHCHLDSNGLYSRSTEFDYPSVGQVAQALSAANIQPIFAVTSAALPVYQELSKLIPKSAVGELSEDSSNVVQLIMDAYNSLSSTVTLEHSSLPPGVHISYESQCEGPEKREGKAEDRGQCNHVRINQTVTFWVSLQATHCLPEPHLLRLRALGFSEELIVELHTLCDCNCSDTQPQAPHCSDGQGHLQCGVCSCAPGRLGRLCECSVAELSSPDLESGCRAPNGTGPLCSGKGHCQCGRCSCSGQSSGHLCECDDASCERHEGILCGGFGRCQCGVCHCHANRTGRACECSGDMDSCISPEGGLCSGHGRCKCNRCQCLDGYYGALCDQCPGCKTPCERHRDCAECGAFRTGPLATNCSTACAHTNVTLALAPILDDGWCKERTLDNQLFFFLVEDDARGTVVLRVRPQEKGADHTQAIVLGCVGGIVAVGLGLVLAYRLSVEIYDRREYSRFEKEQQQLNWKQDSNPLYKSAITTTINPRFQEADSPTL
Procedure: (Test Example) VCAM Antagonistic Activity (VCAM-1/α4β7 Binding Assay):
The capacity of a test substance antagonistic to the binding of lymphoma cell strain RPMI-8866 of human B cells, known to express integrin α4β7, to VCAM-1 was determined.
as §1
RPMI-8866 cells were incubated in Dulbecco modified Eagle medium containing 10 μg/ml of Calcein-AM (Wako Pure Chemical Industries, Ltd.) (SIGMA, hereinafter referred to as “DMEM”) at 37° C. for 30 minutes to label with fluorescence. The cells were again suspended in a binding buffer (20 mM HEPES, DMEM containing 0.1% BSA) containing 4 mM of MnCl2.
as §2, with “RPMI-8866” for “Jurkat”
as §3

[1] = Jurkat cells binding to VCAM-1, read-out: VCAM antagonistic activity (IC50) α4β1
[2] = RPMI-8866 cells binding to VCAM-1, read-out: VCAM antagonistic activity (IC50) α4β7

| Structure (SMILES) | IC50 (integrin α4β1; [1]) | IC50 (integrin α4β7; [2]) | IC50 (integrin α4β1) | IC50 (integrin α4β7) |
| --- | --- | --- | --- | --- |
| CCC(CC)(C(=O)N[C@@H](Cc1ccc(OCc2c(Cl)cccc2Cl)cc1)C(=O)O)C(=O)N1CCN(C(C)=O)CC1 [Example 464] | 100 to 2000 nM | 20 to 100 nM |  |  |
| CCC(CC)(C(=O)N[C@@H](Cc1ccc(OCc2c(Cl)cccc2Cl)cc1)C(=O)O)C(=O)N1CC(Br)C(Br)C1 (stereo partly drawn) [Example 79, N-(2-{[(trans-3,4-dibromopyrrolidine)-1-yl]carbonyl}-2-ethyl-butanoyl)-O-(2,6-dichlorobenzyl)-L-tyrosine] |  |  | 100 to 2000 nM | < 20 nM |
| CN(C)C(=O)C1(C(=O)N[C@@H](Cc2ccc(OCc3c(Cl)cccc3Cl)cc2)C(=O)O)CC1 [Example 21] | 2000 to 10000 nM | 100 to 2000 nM |  |  |
| CCC(CC)(C(=O)N[C@@H](Cc1ccc(OCc2c(Cl)cccc2Cl)cc1)C(=O)O)C(=O)N1CC[C@@H](N(C)C)C1 [Example 44] | 100 to 2000 nM | < 20 nM |  |  |
| CCCC(CC)(C(=O)NC(Cc1ccc(OCc2c(Cl)cccc2Cl)cc1)C(=O)O)C(=O)N1CCCC1 (mixture of isomers) [Example 37] | 2000 to 10000 nM | 20 to 100 nM |  |  |
| CCC(CC)(C(=O)N[C@@H](Cc1ccc(OCc2c(Cl)cccc2Cl)cc1)C(=O)O)C(=O)N1CCC[C@@H](O)C1 [Example 77] | 100 to 2000 nM | < 20 nM |  |  |
| CN(C)C(=O)C1(C(=O)N[C@@H](Cc2ccc(OCc3c(Cl)cccc3Cl)cc2)C(=O)O)CCOCC1 [Example 468] | 100 to 2000 nM | < 20 nM |  |  |
| CSc1ncc(Cl)c(C(=O)Nc2ccc(C[C@H](NC(=O)C3(C(=O)N(C)C)CC3)C(=O)O)cc2)n1 [Example 85, N-[1-N,N-dimethylaminocarbonylcyclopropane-1-ylcarbonyl]-4-({[5-chloro-2-(methylthio)pyrimidine-4-yl]carbonyl}-amino)-L-phenylalanine] | 100 to 2000 nM | < 20 nM |  |  |
| CCC(CC)(C(=O)N[C@@H](Cc1ccc(OCc2c(Cl)cccc2Cl)cc1)C(=O)O)C(=O)N1CCC(=O)C1 [Example 69] | 100 to 2000 nM | < 20 nM |  |  |
| CCC(C)(C(=O)NC(Cc1ccc(OCc2c(Cl)cccc2Cl)cc1)C(=O)O)C(=O)N1CCCC1 (mixture of isomers) [Example 38] | 100 to 2000 nM | 100 to 2000 nM |  |  |
| CCC(CC)(C(=O)N[C@@H](Cc1ccc(OCc2c(Cl)cccc2Cl)cc1)C(=O)O)C(=O)N(C)CCN(C)C [Example 40] | 100 to 2000 nM | 20 to 100 nM |  |  |
| CCN(C)C(=O)C(CC)(CC)C(=O)N[C@@H](Cc1ccc(OCc2c(Cl)cccc2Cl)cc1)C(=O)O [Example 41] | 100 to 2000 nM | 20 to 100 nM |  |  |
| CCC(CC)(C(=O)N[C@@H](Cc1ccc(NC(=O)c2nc(NCc3ccc(OC)cc3)ncc2Cl)cc1)C(=O)O)C(=O)N1CCCC1 [Example 480, N-[2-(pyrrolidine-1-ylcarbonyl)-2-ethyl-butanoyl]-4-[({5-chloro-2-[(4-methoxybenzyl)amino]pyrimidine-4-yl}carbonyl)amino]-L-phenylalanine] | 20 to 100 nM | < 20 nM |  |  |
| CN(C)C(=O)C1(C(=O)N[C@@H](Cc2ccc(OCc3c(Cl)cccc3Cl)cc2)C(=O)O)CCCC1 [Example 8] | 100 to 2000 nM | 100 to 2000 nM |  |  |
| CCC(CC)(C(=O)N[C@@H](Cc1ccc(OCc2c(Cl)cccc2Cl)cc1)C(=O)O)C(=O)N1CC[C@@H](O)C1 [Example 35] | 20 to 100 nM | < 20 nM |  |  |
| CCC(CC)(C(=O)NC(Cc1ccc(OCc2c(Cl)cccc2Cl)cc1)C(=O)O)C(=O)N1CCCC1C(=O)OC (stereo not drawn) [Example 56] | 100 to 2000 nM | < 20 nM |  |  |
| CCC(CC)(C(=O)NC(Cc1ccc(OCc2c(Cl)cccc2Cl)cc1)C(=O)O)C(=O)N1CC2CC1CN2C(C)=O (stereo not drawn) [Example 466] | 20 to 100 nM | < 20 nM |  |  |
| CCCNc1ncc(Cl)c(C(=O)Nc2ccc(C[C@H](NC(=O)C(CC)(CC)C(=O)N3CCCC3)C(=O)O)cc2)n1 [Example 483] | 20 to 100 nM | < 20 nM |  |  |
| CCC(CC)(C(=O)N[C@@H](Cc1ccc(OCc2c(Cl)cccc2Cl)cc1)C(=O)O)C(=O)N1CCCN(C=O)CC1 [Example 61] | 100 to 2000 nM | 20 to 100 nM |  |  |
| CN(C)C(=O)C1(C(=O)N[C@@H](Cc2ccc(OCc3c(Cl)cccc3Cl)cc2)C(=O)O)CCC1 [Example 29] | 100 to 2000 nM | 100 to 2000 nM |  |  |
| COc1ccc(Br)c(C(=O)Nc2ccc(C[C@H](NC(=O)C3(C(=O)N(C)C)CC3)C(=O)O)cc2)c1 [Example 89] | 100 to 2000 nM | 100 to 2000 nM |  |  |
